# Test results taken from patent US9029553B2, “2-anilino nicotinyl linked 2-amino benzothiazole conjugates and process for the preparation thereof” (Council of Scientific & Industrial Research, priority 2011, dated 2015).
# What was measured:
# [1] = system: Ehrlich Ascites Carcinoma (EAC); assay: In vivo anticancer activity, Ehrlich ascites carcinoma; parameters: species or system Swiss mice; settings: for No. of deaths / toxicity to animals: EAC mice
# Experimental: Model: Ehrlich Ascites Carcinoma (EAC)
# Ehrlich ascites carcinoma (EAC) cells were collected from the peritoneal cavity of the swiss mice harbouring 8-10 days old ascitic tumor. 1×10^7 EAC cells were injected intraperitoneally in Swiss mice selected for the experiment on day 0. The next day, animals were randomized and divided into different groups. The treatment groups contained 7 animals each and control group contained 10 animals. Treatment groups were treated with different doses of test substances intraperitoneally from day 1-9. One of the treatment group received 5-fluorouracil (20 mg/kg, i.p) and it served as positive control. The tumor bearing control group was similarly administered normal saline (0.2 ml, i.p.). On day 12, animals were sacrificed and ascitic fluid was collected from peritoneal cavity of each mouse for the evaluation of tumor growth. Percent tumor growth inhibition was calculated based on the total number of tumor cells present in the peritoneal cavity as on day 12 of the experiment using the following formula.
# [2] = system: normal monkey kidney CV-1 cells; assay: MTT cytotoxicity in normal cells; type: cell-based; settings: Primates
# Experimental: These compounds were also evaluated for their cytotoxic potential in normal cells and for these purpose their IC50 value were also determine in normal monkey kidney CV-1 cells by using MTT method. The ratios of normal to cancer cells IC50 value were ranges from 10-1000 times (Table 5).
# [3] = system: HCT-15; assay: MTT inhibition of cell proliferation; type: cell-based; settings: Homo sapiens, 48 h
# From the text: (§1) In order to determine the mode of action of cell death in cancer cells, first we explored the cytotoxic potential of different structural analogs of benzothiazoles on different human cancer cell lines. […] These compounds have limited or no cytotoxicity to cervical cancer SiHa, HeLa cells, breast cancer MCF-7 cells and colon cancer HCT-15 cells.
# [4] = system: Hela; assay: MTT inhibition of cell proliferation; type: cell-based; settings: Homo sapiens, 48 h
# From the text: as §1
# [5] = system: SiHa; assay: MTT inhibition of cell proliferation; type: cell-based; settings: Homo sapiens, 48 h
# From the text: as §1
# [6] = system: HL-60; assay: MTT inhibition of cell proliferation; type: cell-based; settings: Homo sapiens, 48 h
# From the text: as §1
# [7] = system: MCF-7; assay: MTT inhibition of cell proliferation; type: cell-based; settings: Homo sapiens, MCF7, 48 h
# From the text: as §1
# [8] = system: OVCAR-5; assay: SRB percentage growth inhibition (NCI protocol); type: cell-based; settings: Homo sapiens, 48 hrs exposure
# Experimental: (§2) 2-Anilino nicotinyl linked 2-amino benzothiazoles conjugates of formula 4-8 have been tested against ten and eleven human cancer cell lines for 10 and 1 μM respectively derived from nine cancer types (leukemia, non-small cell lung cancer, colon cancer, CNS cancer, melanoma, ovarian cancer, renal cancer, prostate cancer and breast cancer) as per NCI protocol. For each compound, percentage of growth inhibition was calculated for individual cell lines at a minimum of two concentrations (1 and 10 μM). A protocol of 48 hrs continuous drug exposure was used, and a sulforhodamine B (SRB) protein assay was used to estimate cell viability or growth. The percentage of growth inhibition compared with the control was calculated in table 1 and table 2.
# [9] = system: HCT-15; assay: SRB percentage growth inhibition (NCI protocol); type: cell-based; settings: Homo sapiens, 48 hrs exposure
# Experimental: as §2
# [10] = system: Sw-620; assay: SRB percentage growth inhibition (NCI protocol); type: cell-based; settings: Homo sapiens, 48 hrs exposure
# Experimental: as §2
# [11] = system: 502713; assay: SRB percentage growth inhibition (NCI protocol); type: cell-based; settings: Homo sapiens, 48 hrs exposure
# Experimental: as §2
# [12] = system: SK-NS-H; assay: SRB percentage growth inhibition (NCI protocol); type: cell-based; settings: Homo sapiens, SK-N-SH, 48 hrs exposure
# Experimental: as §2
# [13] = system: IGR-OV-1; assay: SRB percentage growth inhibition (NCI protocol); type: cell-based; settings: Homo sapiens, IGROV-1, 48 hrs exposure
# Experimental: as §2
# [14] = system: A549; assay: SRB percentage growth inhibition (NCI protocol); type: cell-based; settings: Homo sapiens, 48 hrs exposure
# Experimental: as §2
# [15] = system: PC-3; assay: SRB percentage growth inhibition (NCI protocol); type: cell-based; settings: Homo sapiens, 48 hrs exposure
# Experimental: as §2
# [16] = system: Hela; assay: SRB percentage growth inhibition (NCI protocol); type: cell-based; settings: Homo sapiens, 48 hrs exposure
# Experimental: as §2
# [17] = system: HEP-2; assay: SRB percentage growth inhibition (NCI protocol); type: cell-based; settings: Homo sapiens, 48 hrs exposure
# Experimental: as §2
# [18] = system: IMR-32; assay: SRB percentage growth inhibition (NCI protocol); type: cell-based; settings: Homo sapiens, 48 hrs exposure
# Experimental: as §2
# [19] = system: SiHa; assay: SRB percentage growth inhibition (NCI protocol); type: cell-based; settings: Homo sapiens, 48 hrs exposure
# Experimental: as §2
# [20] = system: DU145; assay: SRB percentage growth inhibition (NCI protocol); type: cell-based; settings: Homo sapiens, DU-145, 48 hrs exposure
# Experimental: as §2
# [21] = system: MCF-7; assay: SRB percentage growth inhibition (NCI protocol); type: cell-based; settings: Homo sapiens, MCF7, 48 hrs exposure
# Experimental: as §2
# [22] = system: HL-60 cells; assay: Cell cycle analysis (FACS) by flow cytometry; type: cell-based, human; settings: 1 μM, up to 24 h
# From the text: The damage was more apparent with compound 8 and 6 (90% and 60% DNA damaged, respectively).
# [23] = system: HL-60 cells; assay: Flow cytometric analysis of reactive oxygen species (DCFH-DA); type: cell-based, human; settings: 1 μM, 24 h, HL-60, compared to control
# Experimental: It was clear that these compounds were cytotoxic and induce apoptosis in HL-60 cells, now we have to found out the early events which were responsible for the induction of apoptosis like reactive oxygen species (ROS) or nitric oxide (NO) generation. Intracellular peroxide (ROS) in the cells was measured by DCFH-DA by using flow cytometry. Cells were incubated with tested compounds at 1 μM for 24 h in HL-60 cells and analyzed by flow cytometry after double staining with DCFH-DA (FIG. 7). Cells were analyzed for fluorescence intensity in FL1 vs. cell count. There was hardly any DCF fluorescence (ROS positive cells) in the untreated HL-60 cells, and this status remained unchanged when cells were incubated for 24 hr with compounds 7 and 8. […] Compounds 4 and 6 also induce the generation of peroxide in HL-60 cells (31 and 16% increase, respectively).
# [24] = system: survivin; assay: Western blot of cell death targets; type: cell-based, human; settings: 1 μM, 24 h, HL-60
# Experimental: Apoptosis was further characterized by the western blot analysis. Cells were treated with tested compounds at 1 μM for 24 h and expression of key apoptotic proteins like NF-kB, survivin; PARP, Bcl-2 and HSP-90 were analyzed through western blot. Both NF-kB and survivin are highly expressed in HL-60 cells. NF-kB is a transcriptional factor regulating the expression of several genes in the cells whereas survivin is a cell cycle regulated inhibitor of apoptosis protein (IAP), mostly over expressed in most of the tumors.
# [25] = system: topoisomerase II; assay: DNA topoisomerase-II inhibition assay; type: biochemical; settings: 1 μM; etoposide 100 μM
# From the text: DNA topoisomerases are nuclear enzymes capable of resolving the topology of DNA to allow its replication. So, proper relaxing is very important for successful replication cycle and thus for the cell survival. However, topoisomerases also serve as targets in the anticancer chemotherapy in which cell death serves an important purpose. Moreover, the topoisomerase targeting drugs can either be classified either topo posions, which act by stabilizing enzyme DNA cleavable complexes leading to DNA break or topo catalytic inhibitors, which act by stabilizing enzyme where both DNA strands remain intact and no DNA breaks occur. Importantly, all the topoisomerase inhibitors finally induce apoptosis. In the present study, all the five compounds 4-8 were first subjected to topoisomerase II inhibition assay.
# [26] = 30 mg/Kg i.p. day 1-9, read day 12
SMILES,"Growth Inhibition (%) [1, 26]",No. of deaths / toxicity to animals ([1]; 30 mg/Kg i.p.),IC50 [2],IC50 [3],IC50 [4],IC50 [5],IC50 [6],IC50 [7],inhibition at 1 µM [8],inhibition at 10 µM [8],inhibition at 1 µM [9],inhibition at 10 µM [9],inhibition at 1 µM [10],inhibition at 10 µM [10],inhibition at 10 µM [11],inhibition at 10 µM [12],inhibition at 1 µM [13],inhibition at 1 µM [14],inhibition at 10 µM [14],inhibition at 1 µM [15],further results
"O=C(Nc1nc2ccc([N+](=O)[O-])cc2s1)c1cccnc1Nc1ccc(F)cc1 [Compound 6, N3-(6-nitro-1,3-benzothiazol-2-yl)-2-(4-fluoroanilino)nicotinamide]",43.11%,0/7,15 µM,> 100 µM,8 µM,7 µM,0.3 µM,> 100 µM,27%,53%,22%,55%,9%,67%,66%,63%,25%,27%,18%,26%,"Growth Inhibition (%) ([1]; 20 mg/Kg i.p. day 1-9, read day 12): 22.18%; No. of deaths / toxicity to animals ([1]; 20 mg/Kg i.p.): 0/7; Growth Inhibition (%) ([1]; 40 mg/Kg i.p. day 1-9, read day 12): 68.11%; No. of deaths / toxicity to animals ([1]; 40 mg/Kg i.p.): 4/7 and considerable toxicity; No. of deaths / toxicity to animals ([1]; 40 mg/Kg i.p., listed as Comp 6): 4/7; inhibition at 1 µM [16]: 40%; inhibition at 1 µM [17]: 53%; inhibition at 10 µM [17]: 52%; inhibition at 1 µM [18]: 31%; inhibition at 10 µM [18]: 33%; inhibition at 10 µM [19]: 23%; inhibition at 1 µM [20]: 31%; inhibition at 10 µM [20]: 51%; inhibition at 1 µM [21]: 39%; DNA damaged (sub-G0 fraction) [22]: 60%; increase in DCF positive cell population (ROS) [23]: 16%; survivin level (western blot) [24]: highest inhibition potential"
"COc1ccc(Nc2ncccc2C(=O)Nc2nc3ccc([N+](=O)[O-])cc3s2)cc1 [Compound 5, N3-(6-nitro-1,3-benzothiazol-2-yl)-2-(4-methoxyanilino)nicotinamide]",Intolerable,toxic,10 µM,> 100 µM,> 100 µM,28 µM,0.7 µM,> 100 µM,31%,52%,9%,47%,15%,64%,59%,64%,27%,27%,3%,21%,"topoisomerase-II inhibition (DNA relaxation) [25]: more potent effect relative to etoposide; Growth Inhibition (%) ([1]; 5 mg/Kg i.p. day 1-9, read day 12): 20.90%; No. of deaths / toxicity to animals ([1]; 5 mg/Kg i.p.): 0/7; No. of deaths / toxicity to animals ([1]; 30 mg/Kg i.p., listed as Comp 5): 7/7; inhibition at 1 µM [16]: 7%; inhibition at 1 µM [17]: 38%; inhibition at 10 µM [17]: 5%; inhibition at 1 µM [18]: 53%; inhibition at 10 µM [18]: 55%; inhibition at 10 µM [19]: 66%; inhibition at 1 µM [20]: 53%; inhibition at 10 µM [20]: 32%; inhibition at 1 µM [21]: 25%; increase in DCF positive cell population (ROS) [23]: ~44%"
